Reference: US20180185327A1, “FORMULATION COMPRISING PARTICLES AND A LIPASE INHIBITOR” (PERORA GMBH, priority 2015, published 2018)
Read-outs that look alike come from different tables or passages of the source.

Tests used:
[1] = cited from earlier work
[2] = after an oral dose; cited from earlier work
[3] = High fat diet feeding experiments in rats (cream chow with orlistat, with or without polymer or lipid granulate); assay type: in vivo, male wistar rats; conditions: Ex. 3.2: four rats, cream chow 50% fat with added orlistat 0.6 mg/g chow, seven days
Description: Animals (male rats) were kept in cages on standard animal bedding (two animals per cage or individual housing) and were provided with ad libitum access to food and water. Animal food was provided as pellets in a pellet rack or as a cream or as granulate powder each filled in a container attached to the inside of the cage.
Body weight was recorded at beginning and end of experiments. Food consumption was documented daily except for weekends. Experiments were performed according to German laws of animal protection.
Rodent chow was purchased from ssniff Spezialdiaten GmbH, Germany; poly(acrylic acid) (PAA, Carbopol® 971 P NF) was obtained from the Lubrizol Corporation, USA; and HPMC (AnyAddy®) was obtained from Harke Pharma, Germany. Orlistat (Hexal, Germany) was purchased in a local pharmacy. Hard fat/tripalmitin (Dynasan® 116), triglyceride (Witepsol® E85), glycerol monooleate (Imwitor®990), and Xanthan were obtained from NRC/Jungbunzlauer, Germany. Glycerol monolaurate (GML 90 food) was obtained from Mosselman, Belgium. Resistant dextrin (Nutriose® FB06) was obtained from Barentz, Germany or Barentz, Netherlands.

## CCCCCCCCCCC[C@@H](C[C@@H]1OC(=O)[C@H]1CCCCCC)OC(=O)[C@H](CC(C)C)NC=O [orlistat]
[1]; standard over-the-counter dose of 60 mg
  dietary fat prevented from being absorbed: about 25%
[1]; standard prescription dose of 120 mg three times daily before meals
  dietary fat prevented from being absorbed: approximately 30%
[2]
  amount absorbed systemically: Only trace amounts
[3]
  body weight lost (±SD): 2.5±1.4%
  mean daily food intake: 23.6 g
